Test results: ChEMBL document CHEMBL2021760, “4-(1-Phenyl-1H-pyrazol-4-yl)quinolines as novel, selective and brain penetrant metabotropic glutamate receptor 4 positive allosteric modulators” (Bioorg Med Chem Lett, 2012)
≈ marks a conversion by molar mass, not a printed value. Blank lines part the entries; values can stand above or below the compound they belong to. Calls of active or inactive are those of the source. No cut-off for these calls is given here.

Columns and labels:
[1] = biological target: T1, Metabotropic glutamate receptor 4 (Homo sapiens, UniProt Q14833); assay: Positive allosteric modulation of human mGlu4 receptor expressed in BHK cells assessed as potentiation of glutamate-induced calcium mobilization by FLIPR analysis relative to PHCCC; assay type: functional, cell-based
[2] = biological target: T1, Metabotropic glutamate receptor 4; assay: Positive allosteric modulation of human mGlu4 receptor expressed in BHK cells assessed as potentiation of glutamate-induced calcium mobilization by FLIPR analysis; assay type: functional, cell-based
Brain [3] = assay: Fraction unbound in rat brain; assay type: ADME, tissue-based
Plasma [4] = assay: Plasma concentration in rat at 10 mg/kg, po; assay type: ADME, organism-based; design: dose 10 mg/kg, route oral; conditions: in vivo
CYP2C19 = CYP2C19 (Homo sapiens, UniProt P33261); assay: Inhibition of CYP2C19 at 5 uM; assay type: ADME
CYP2B6 = biological target: T2, CYP2B6 (Homo sapiens, UniProt P20813); assay: Inhibition of CYP2B6 at 5 uM; assay type: ADME
T2 sequence (P20813 whole entry): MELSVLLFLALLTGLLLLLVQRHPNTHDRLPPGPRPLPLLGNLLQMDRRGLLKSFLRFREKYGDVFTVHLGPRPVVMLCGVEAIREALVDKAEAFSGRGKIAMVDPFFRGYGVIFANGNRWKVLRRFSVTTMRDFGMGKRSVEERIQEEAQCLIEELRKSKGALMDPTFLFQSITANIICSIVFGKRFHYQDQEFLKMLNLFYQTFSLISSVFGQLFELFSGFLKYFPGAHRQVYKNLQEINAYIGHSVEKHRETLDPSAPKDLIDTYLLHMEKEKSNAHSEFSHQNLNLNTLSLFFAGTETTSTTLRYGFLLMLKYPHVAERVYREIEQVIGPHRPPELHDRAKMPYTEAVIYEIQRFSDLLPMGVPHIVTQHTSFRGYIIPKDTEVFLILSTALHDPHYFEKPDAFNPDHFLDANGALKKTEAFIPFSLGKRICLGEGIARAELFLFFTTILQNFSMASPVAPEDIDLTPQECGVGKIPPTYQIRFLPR

Cerebrospinal fluid [5] = assay: Drug uptake in rat CSF at 10 mg/kg, po; assay type: ADME, organism-based; design: dose 10 mg/kg, route oral; conditions: in vivo
Rattus norvegicus = species: Rattus norvegicus; assay: Intrinsic clearance in rat; assay type: ADME, organism-based; conditions: in vivo
[6] = Plasma protein binding in rat; assay type: ADME, cell-free; conditions: read-out: PPB (converted)
CYP2C9 = CYP2C9 (Homo sapiens, UniProt P11712); assay: Inhibition of CYP2C9 at 5 uM; assay type: ADME
[7] = Kinetic solubility of the compound at pH 7.4; assay type: physicochemical; conditions: buffer, read-out: Kinetic_solubility
[8] = biological target: T1, Metabotropic glutamate receptor 4; assay: Positive allosteric modulation of human mGlu4 receptor expressed in BHK cells assessed as fold shift in calcium mobilization by FLIPR analysis relative to glutamate; assay type: functional, cell-based
[9] = Kinetic solubility of the compound at pH 4.0; assay type: physicochemical; conditions: buffer, read-out: Kinetic_solubility
[10] = Ratio of drug level in brain to plasma in rat at 10 mg/kg, po; assay type: ADME, organism-based; design: dose 10 mg/kg, route oral; conditions: read-out: BPR
Brain [11] = assay: Drug uptake in rat brain at 10 mg/kg, po; assay type: ADME, organism-based; design: dose 10 mg/kg, route oral; conditions: in vivo
CYP3A4 = CYP3A4 (Homo sapiens, UniProt P08684); assay: Inhibition of CYP3A4 at 5 uM; assay type: ADME
[12] = biological target: Metabotropic glutamate receptor 1 (Homo sapiens) (UniProt Q13255); assay: Negative allosteric modulation of mGlu1 receptor at 10 uM
[13] = biological target: Metabotropic glutamate receptor 7 (Homo sapiens) (UniProt Q14831); assay: Agonist activity at mGlu7 receptor at 10 uM; assay type: functional
[14] = biological target: T3, Melatonin receptor type 1A (Homo sapiens, UniProt P48039); assay: Agonist activity at MT1; assay type: functional
[15] = biological target: Metabotropic glutamate receptor 5 (Homo sapiens) (UniProt P41594); assay: Positive allosteric modulation of mGlu5 receptor at 10 uM
[16] = biological target: Metabotropic glutamate receptor 2 (Homo sapiens) (UniProt Q14416); assay: Positive allosteric modulation of mGlu2 receptor at 10 uM
[17] = biological target: Metabotropic glutamate receptor 5 (Homo sapiens) (UniProt P41594); assay: Negative allosteric modulation of mGlu5 receptor at 10 uM
[18] = biological target: Metabotropic glutamate receptor 1 (Homo sapiens) (UniProt Q13255); assay: Agonist activity at mGlu1 receptor at 10 uM; assay type: functional
[19] = biological target: Metabotropic glutamate receptor 2 (Homo sapiens) (UniProt Q14416); assay: Negative allosteric modulation of mGlu2 receptor at 10 uM
[20] = biological target: Metabotropic glutamate receptor 3 (Homo sapiens) (UniProt Q14832); assay: Negative allosteric modulation of mGlu3 receptor at 10 uM
[21] = biological target: Voltage-gated inwardly rectifying potassium channel KCNH2 (Homo sapiens, UniProt Q12809); assay: Inhibition of human ERG by electrophysiology assay
[22] = Inhibition of benzodiazepine receptor
[23] = biological target: Metabotropic glutamate receptor 3 (Homo sapiens) (UniProt Q14832); assay: Positive allosteric modulation of mGlu3 receptor at 10 uM
[24] = biological target: Metabotropic glutamate receptor 8 (Homo sapiens) (UniProt O00222); assay: Negative allosteric modulation of mGlu8 receptor at 10 uM
[25] = biological target: Metabotropic glutamate receptor 5 (Homo sapiens) (UniProt P41594); assay: Agonist activity at mGlu5 receptor at 10 uM; assay type: functional
[26] = biological target: Metabotropic glutamate receptor 7 (Homo sapiens) (UniProt Q14831); assay: Negative allosteric modulation of mGlu7 receptor at 10 uM
[27] = biological target: T3, Melatonin receptor type 1A; assay: Agonist activity at MT1 relative to control; assay type: functional
[28] = biological target: Metabotropic glutamate receptor 8 (Homo sapiens) (UniProt O00222); assay: Positive allosteric modulation of mGlu8 receptor at 10 uM
[29] = Lipophilicity, log D of compound at pH 7.4; assay type: physicochemical; conditions: buffer
Cerebrospinal fluid [30] = assay: Drug uptake in rat CSF at 30 mg/kg, sc; assay type: ADME, organism-based; design: dose 30 mg/kg, route subcutaneous; conditions: in vivo
[31] = biological target: Metabotropic glutamate receptor 1 (Homo sapiens) (UniProt Q13255); assay: Positive allosteric modulation of mGlu1 receptor at 10 uM
[32] = biological target: Metabotropic glutamate receptor 7 (Homo sapiens) (UniProt Q14831); assay: Positive allosteric modulation of mGlu7 receptor at 10 uM
[33] = biological target: Metabotropic glutamate receptor 6 (Homo sapiens) (UniProt O15303); assay: Negative allosteric modulation of mGlu6 receptor at 10 uM
Plasma [34] = assay: Plasma concentration in rat at 30 mg/kg, sc; assay type: ADME, organism-based; design: dose 30 mg/kg, route subcutaneous; conditions: in vivo
[35] = Ratio of drug level in brain to plasma in rat at 30 mg/kg, sc; assay type: ADME, organism-based; design: dose 30 mg/kg, route subcutaneous; conditions: read-out: BPR
[36] = biological target: Metabotropic glutamate receptor 3 (Homo sapiens) (UniProt Q14832); assay: Agonist activity at mGlu3 receptor at 10 uM; assay type: functional
[37] = biological target: Metabotropic glutamate receptor 6 (Homo sapiens) (UniProt O15303); assay: Agonist activity at mGlu6 receptor at 10 uM; assay type: functional
Brain [38] = assay: Drug uptake in rat brain at 30 mg/kg, sc; assay type: ADME, organism-based; design: dose 30 mg/kg, route subcutaneous; conditions: in vivo
[39] = biological target: Metabotropic glutamate receptor 2 (Homo sapiens) (UniProt Q14416); assay: Agonist activity at mGlu2 receptor at 10 uM; assay type: functional
[40] = biological target: Metabotropic glutamate receptor 6 (Homo sapiens) (UniProt O15303); assay: Positive allosteric modulation of mGlu6 receptor at 10 uM
[41] = biological target: 5-hydroxytryptamine receptor 2B (Homo sapiens, UniProt P41595); assay: Inhibition of 5HT2B
[42] = biological target: Metabotropic glutamate receptor 8 (Homo sapiens) (UniProt O00222); assay: Agonist activity at mGlu8 receptor at 10 uM; assay type: functional

Chain of CYP3A4 (P08684 whole entry): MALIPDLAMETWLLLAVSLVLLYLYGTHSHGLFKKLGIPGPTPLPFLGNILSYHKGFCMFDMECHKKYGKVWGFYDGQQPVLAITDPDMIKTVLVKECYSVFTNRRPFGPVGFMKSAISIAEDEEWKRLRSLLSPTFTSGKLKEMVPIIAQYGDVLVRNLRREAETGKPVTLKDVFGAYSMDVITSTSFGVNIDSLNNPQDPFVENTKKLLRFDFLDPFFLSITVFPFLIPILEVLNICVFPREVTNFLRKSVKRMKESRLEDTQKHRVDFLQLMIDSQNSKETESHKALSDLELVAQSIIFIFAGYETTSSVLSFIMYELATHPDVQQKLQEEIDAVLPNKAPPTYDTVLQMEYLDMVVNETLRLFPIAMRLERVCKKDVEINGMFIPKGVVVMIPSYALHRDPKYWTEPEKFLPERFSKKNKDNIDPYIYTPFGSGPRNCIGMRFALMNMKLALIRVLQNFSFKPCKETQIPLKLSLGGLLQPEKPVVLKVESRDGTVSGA
Chain of Metabotropic glutamate receptor 1 (Homo sapiens) (Q13255 19-1194 limits assumed): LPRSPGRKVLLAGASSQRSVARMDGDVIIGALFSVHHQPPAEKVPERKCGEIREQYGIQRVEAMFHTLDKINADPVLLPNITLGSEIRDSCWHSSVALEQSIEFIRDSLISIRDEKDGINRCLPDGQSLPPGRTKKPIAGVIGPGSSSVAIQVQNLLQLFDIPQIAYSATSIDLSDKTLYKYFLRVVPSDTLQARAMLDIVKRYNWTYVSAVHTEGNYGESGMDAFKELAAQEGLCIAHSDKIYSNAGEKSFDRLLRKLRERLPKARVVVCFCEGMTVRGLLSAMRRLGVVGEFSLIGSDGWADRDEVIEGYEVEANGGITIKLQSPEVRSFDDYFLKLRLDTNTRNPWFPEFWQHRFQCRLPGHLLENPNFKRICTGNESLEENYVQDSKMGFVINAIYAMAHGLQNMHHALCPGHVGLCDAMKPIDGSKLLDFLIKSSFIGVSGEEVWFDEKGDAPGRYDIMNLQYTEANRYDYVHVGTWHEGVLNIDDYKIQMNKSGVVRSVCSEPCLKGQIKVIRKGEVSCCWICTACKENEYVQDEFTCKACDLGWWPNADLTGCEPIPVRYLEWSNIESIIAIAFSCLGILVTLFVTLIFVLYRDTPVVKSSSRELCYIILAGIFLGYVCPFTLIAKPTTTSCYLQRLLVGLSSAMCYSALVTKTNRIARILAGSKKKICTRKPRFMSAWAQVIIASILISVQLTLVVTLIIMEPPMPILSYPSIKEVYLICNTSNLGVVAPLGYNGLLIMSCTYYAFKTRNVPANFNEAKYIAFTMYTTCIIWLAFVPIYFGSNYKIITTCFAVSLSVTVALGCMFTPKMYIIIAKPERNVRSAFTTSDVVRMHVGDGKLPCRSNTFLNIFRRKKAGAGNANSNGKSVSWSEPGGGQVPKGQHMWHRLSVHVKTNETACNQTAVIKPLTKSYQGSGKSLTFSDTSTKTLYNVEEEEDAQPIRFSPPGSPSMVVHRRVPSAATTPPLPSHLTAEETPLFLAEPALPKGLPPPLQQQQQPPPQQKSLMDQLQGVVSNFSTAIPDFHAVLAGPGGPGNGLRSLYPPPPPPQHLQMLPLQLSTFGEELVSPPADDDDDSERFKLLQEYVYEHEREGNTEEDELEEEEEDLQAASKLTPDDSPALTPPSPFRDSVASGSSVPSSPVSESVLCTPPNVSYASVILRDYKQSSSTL
Chain of Metabotropic glutamate receptor 2 (Homo sapiens) (Q14416 19-872 limits assumed): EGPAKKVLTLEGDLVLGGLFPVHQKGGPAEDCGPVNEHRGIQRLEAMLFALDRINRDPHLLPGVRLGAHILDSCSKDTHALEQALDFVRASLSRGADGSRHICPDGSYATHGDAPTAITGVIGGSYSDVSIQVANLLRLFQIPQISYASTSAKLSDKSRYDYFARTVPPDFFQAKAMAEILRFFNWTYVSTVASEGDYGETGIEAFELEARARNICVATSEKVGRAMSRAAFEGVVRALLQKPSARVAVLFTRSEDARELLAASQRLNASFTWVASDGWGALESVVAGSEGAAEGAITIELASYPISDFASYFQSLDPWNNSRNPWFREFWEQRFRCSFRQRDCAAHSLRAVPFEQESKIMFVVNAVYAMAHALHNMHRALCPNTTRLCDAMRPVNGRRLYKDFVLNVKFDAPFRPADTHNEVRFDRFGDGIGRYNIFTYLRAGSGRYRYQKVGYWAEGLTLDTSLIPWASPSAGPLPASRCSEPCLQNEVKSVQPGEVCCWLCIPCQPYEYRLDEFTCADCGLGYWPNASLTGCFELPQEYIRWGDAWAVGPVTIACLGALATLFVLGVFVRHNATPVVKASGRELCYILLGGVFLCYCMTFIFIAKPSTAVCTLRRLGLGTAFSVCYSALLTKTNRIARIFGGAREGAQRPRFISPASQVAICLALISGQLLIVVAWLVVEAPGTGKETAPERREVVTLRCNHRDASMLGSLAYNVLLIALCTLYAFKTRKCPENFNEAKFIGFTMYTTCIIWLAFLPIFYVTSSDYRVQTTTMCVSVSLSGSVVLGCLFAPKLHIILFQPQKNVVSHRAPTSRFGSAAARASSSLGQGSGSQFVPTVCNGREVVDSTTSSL
T1 sequence (Q14833 whole entry): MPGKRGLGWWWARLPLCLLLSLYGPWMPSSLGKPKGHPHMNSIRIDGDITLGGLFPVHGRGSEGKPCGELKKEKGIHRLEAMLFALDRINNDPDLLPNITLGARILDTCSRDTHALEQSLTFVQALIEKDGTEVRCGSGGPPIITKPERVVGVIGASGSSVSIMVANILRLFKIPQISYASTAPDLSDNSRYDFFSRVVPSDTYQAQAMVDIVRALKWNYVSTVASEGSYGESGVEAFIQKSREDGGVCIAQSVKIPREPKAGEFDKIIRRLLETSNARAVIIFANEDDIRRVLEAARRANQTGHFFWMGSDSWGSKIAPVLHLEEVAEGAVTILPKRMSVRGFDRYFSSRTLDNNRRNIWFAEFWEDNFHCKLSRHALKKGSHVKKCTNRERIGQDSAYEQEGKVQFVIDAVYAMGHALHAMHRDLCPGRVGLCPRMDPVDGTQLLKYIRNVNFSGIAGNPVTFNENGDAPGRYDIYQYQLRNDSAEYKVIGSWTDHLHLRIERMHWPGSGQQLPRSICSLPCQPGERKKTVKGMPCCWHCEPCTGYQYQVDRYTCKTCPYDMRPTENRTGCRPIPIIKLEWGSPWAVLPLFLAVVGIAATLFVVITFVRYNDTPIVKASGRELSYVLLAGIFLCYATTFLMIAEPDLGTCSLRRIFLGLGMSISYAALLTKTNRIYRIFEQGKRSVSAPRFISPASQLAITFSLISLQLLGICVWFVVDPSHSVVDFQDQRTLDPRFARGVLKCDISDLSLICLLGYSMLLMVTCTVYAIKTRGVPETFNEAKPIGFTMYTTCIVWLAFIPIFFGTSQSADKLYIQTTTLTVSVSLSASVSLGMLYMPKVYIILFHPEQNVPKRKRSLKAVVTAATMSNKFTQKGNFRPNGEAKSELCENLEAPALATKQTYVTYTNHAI
Chain of Metabotropic glutamate receptor 3 (Homo sapiens) (Q14832 23-879 limits assumed): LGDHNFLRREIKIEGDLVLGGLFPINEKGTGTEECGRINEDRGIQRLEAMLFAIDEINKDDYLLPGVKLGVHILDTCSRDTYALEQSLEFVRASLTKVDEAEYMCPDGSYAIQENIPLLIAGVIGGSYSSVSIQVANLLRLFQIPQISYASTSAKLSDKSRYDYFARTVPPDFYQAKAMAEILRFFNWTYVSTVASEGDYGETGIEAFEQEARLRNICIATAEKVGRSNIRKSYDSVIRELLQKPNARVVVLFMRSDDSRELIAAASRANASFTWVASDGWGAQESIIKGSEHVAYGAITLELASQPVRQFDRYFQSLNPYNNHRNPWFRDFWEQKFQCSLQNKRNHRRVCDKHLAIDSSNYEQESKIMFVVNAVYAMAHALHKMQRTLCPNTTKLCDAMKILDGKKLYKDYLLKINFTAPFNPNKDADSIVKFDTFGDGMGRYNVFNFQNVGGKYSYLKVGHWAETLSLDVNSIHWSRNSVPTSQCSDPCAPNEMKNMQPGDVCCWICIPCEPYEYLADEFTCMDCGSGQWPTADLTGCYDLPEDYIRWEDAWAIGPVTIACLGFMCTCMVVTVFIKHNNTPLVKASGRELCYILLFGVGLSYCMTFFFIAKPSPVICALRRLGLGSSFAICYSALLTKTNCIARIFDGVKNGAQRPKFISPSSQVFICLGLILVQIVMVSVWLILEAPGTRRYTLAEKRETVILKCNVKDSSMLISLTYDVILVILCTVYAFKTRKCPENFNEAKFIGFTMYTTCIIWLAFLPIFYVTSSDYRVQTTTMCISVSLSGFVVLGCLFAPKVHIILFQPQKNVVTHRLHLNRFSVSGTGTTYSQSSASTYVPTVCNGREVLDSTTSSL
T3 sequence (P48039 whole entry): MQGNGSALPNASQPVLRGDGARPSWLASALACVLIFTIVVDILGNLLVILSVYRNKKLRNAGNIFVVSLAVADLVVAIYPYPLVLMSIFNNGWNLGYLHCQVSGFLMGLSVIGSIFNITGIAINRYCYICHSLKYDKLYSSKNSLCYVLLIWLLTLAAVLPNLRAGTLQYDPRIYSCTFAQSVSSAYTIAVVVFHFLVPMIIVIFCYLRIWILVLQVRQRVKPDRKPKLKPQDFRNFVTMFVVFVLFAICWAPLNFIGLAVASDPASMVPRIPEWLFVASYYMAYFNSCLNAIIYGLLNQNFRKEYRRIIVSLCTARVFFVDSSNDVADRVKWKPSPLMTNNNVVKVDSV

Compound: Fc1ccc(-n2cc(-c3ccnc4ccccc34)cn2)cc1
Emax [1]: 110%
EC50 [2]: 2900 nM

Compound: Cc1c(-c2ccnc3ccccc23)cnn1-c1ccccc1
Emax [1]: 130%
EC50 [2]: 670 nM

Compound: c1ccc(-n2cc(-c3ccnc4[nH]ccc34)cn2)cc1
Emax [1]: 47%
EC50 [2]: 2700 nM

Compound: CCN(CC)C(=O)Oc1ccc2c(-c3cnn(-c4ccccc4)c3)ccnc2c1
Fu (Brain [3]): 0.4%
Cp (Plasma [4]): 23 ng/mL
inhibition at 5 µM (CYP2C19): 83%
inhibition at 5 µM (CYP2B6): 61%
Drug uptake (Cerebrospinal fluid [5]): < 1 ng/mL
CL (Rattus norvegicus): 46 mL/min
fraction unbound [6]: 0.012
inhibition at 5 µM (CYP2C9): 88%
solubility kinetic [7]: 1.4 µM (≈ 0.541 µg/mL)
Ratio [8]: 11.2
solubility kinetic [9]: 190 µM (≈ 73.4 µg/mL)
Kp [10]: 1.5
Drug uptake (Brain [11]): 35 ng/g
inhibition at 5 µM (CYP3A4): 35%
Emax [1]: 120%
EC50 [2]: 390 nM

Compound: c1ccc(-n2cc(-c3ccncc3)cn2)cc1
Emax [1]: 39%
EC50 [2]: > 10000 nM

Compound: CCOc1ccc2c(-c3cnn(-c4ccccc4)c3)ccnc2c1
Emax [1]: 93%
EC50 [2]: 540 nM

Compound: c1ccc(-n2cc(-c3ccnc4cc(OCCCN5CCCC5)ccc34)cn2)cc1
Emax [1]: 7%
EC50 [2]: > 10000 nM

Compound: Cc1nccc(-c2cnn(-c3ccccc3)c2)c1C
Emax [1]: 40%
EC50 [2]: 1200 nM

Compound: COc1ccc2c(-c3cnn(-c4ccccc4)c3)ccnc2c1
Fu (Brain [3]): 0.1%
Cp (Plasma [4]): 220 ng/mL
inhibition at 5 µM (CYP2B6): 35%
Drug uptake (Cerebrospinal fluid [5]): < 1 ng/mL
CL (Rattus norvegicus): 68 mL/min
fraction unbound [6]: 0.002
solubility kinetic [7]: 4.6 µM (≈ 1.39 µg/mL)
solubility kinetic [9]: 120 µM (≈ 36.2 µg/mL)
Kp [10]: 0.8
logD [29]: 5
Drug uptake (Brain [11]): 180 ng/g
inhibition at 5 µM (CYP3A4): 35%
Emax [1]: 79%
EC50 [2]: 220 nM

Compound: CN(C)C(=O)Oc1ccc2c(-c3cnn(-c4ccccc4)c3)ccnc2c1
Emax [1]: 82%
EC50 [2]: 950 nM

Compound: c1ccc(-n2cc(-c3ccnc4cc(OCCN5CCCC5)ccc34)cn2)cc1
Emax [1]: 9%
EC50 [2]: > 10000 nM

Compound: Fc1ccccc1-n1cc(-c2ccnc3ccccc23)cn1
Emax [1]: 70%
EC50 [2]: 1100 nM

Compound: c1ccc2c(-c3cn[nH]c3)ccnc2c1
Emax [1]: 6%
EC50 [2]: > 10000 nM

Compound: Clc1ccc2c(-c3cnn(-c4ccccc4)c3)ccnc2c1
Emax [1]: 100%
EC50 [2]: 590 nM

Compound: CCNC(=O)Oc1ccc2c(-c3cnn(-c4ccccc4)c3)ccnc2c1
Emax [1]: 86%
EC50 [2]: 10000 nM

Now from value to compound, other results behind:

Emax [1]: 92%
EC50 [2]: 2100 nM
Compound: c1ccc(-n2cc(-c3ccnc4ccccc34)cn2)nc1

Emax [1]: 71%
EC50 [2]: 6000 nM
Compound: c1ccc(-n2cc(-c3ccnc4cc(OCCN5CCCCC5)ccc34)cn2)cc1

Emax [1]: 23%
EC50 [2]: > 10000 nM
Compound: CN(C)CCOc1ccc2c(-c3cnn(-c4ccccc4)c3)ccnc2c1

Activity [12]: inactive
Activity [13]: inactive
EC50 [14]: 920 nM
Activity [15]: inactive
Activity [16]: inactive
Fu (Brain [3]): 0.7%
Activity [17]: inactive
Activity [18]: inactive
Activity [19]: inactive
Activity [20]: inactive
inhibition at 5 µM (CYP2B6): 56%
CL (Rattus norvegicus): 550 mL/min
fraction unbound [6]: 0.004
IC50 [22]: 3100 nM
inhibition at 5 µM (CYP2C9): 48%
solubility kinetic [7]: 21 µM (≈ 5.7 µg/mL)
Activity [23]: inactive
Ratio [8]: 12
solubility kinetic [9]: 150 µM (≈ 40.7 µg/mL)
Activity [24]: inactive
Activity [25]: inactive
Activity [26]: inactive
Emax [27]: 84%
Activity [28]: inactive
logD [29]: 3.9
Drug uptake (Cerebrospinal fluid [30]): 72 ng/mL
Activity [31]: inactive
Activity [32]: inactive
Activity [33]: inactive
Cp (Plasma [34]): 1886 ng/mL
Kp [35]: 2.7
Activity [36]: inactive
Activity [37]: inactive
Drug uptake (Brain [38]): 5055 ng/g
Activity [39]: inactive
Activity [40]: inactive
inhibition at 5 µM (CYP3A4): 38%
IC50 [41]: 1600 nM
Emax [1]: 105%
Activity [42]: inactive
EC50 [2]: 220 nM
Compound: c1ccc(-n2cc(-c3ccnc4ccccc34)cn2)cc1
IC50 [21]: 2500 nM

Emax [1]: 110%
EC50 [2]: 390 nM
Compound: COCCOc1ccc2c(-c3cnn(-c4ccccc4)c3)ccnc2c1

Emax [1]: 42%
EC50 [2]: 2400 nM
Compound: c1ccc(-n2cc(-c3n[nH]c4ccccc34)cn2)cc1

Emax [1]: 130%
EC50 [2]: 190 nM
Compound: O=C(Oc1ccc2c(-c3cnn(-c4ccccc4)c3)ccnc2c1)N1CCCCC1
